# Laboratory results reported in article PMC11882969 (Nature Communications, 2025).
# Values joined by “and” are separate entries in the source; they are usually repeats but may differ in a detail not shown here. Equal values may be shown once. Read-outs that look alike come from different tables or passages of the source.
# Tests used:
# CB1 (rCB1) = CB1 (rCB1) (Rattus norvegicus, UniProt P20272); assay: Radioligand competition binding, [3H]-CP-55,940, rat brain membranes
# hCB1 = hCB1 (Homo sapiens, UniProt P21554); assay: bioSensAll ebBRET signaling profiling, hCB1; type: cell-based; design: host or cells: HEK293SL cells, transient PEI transfection; settings: for Gi1 hCB1 response: Gi1 biosensor; for Gi1 hCB1 / GoB hCB1: single replicate values, FigS6a; for EC50: read-out: EC50 [95% CI]; for Emax: normalized to CP-55,940
# hCB1, sequence (P21554 whole entry): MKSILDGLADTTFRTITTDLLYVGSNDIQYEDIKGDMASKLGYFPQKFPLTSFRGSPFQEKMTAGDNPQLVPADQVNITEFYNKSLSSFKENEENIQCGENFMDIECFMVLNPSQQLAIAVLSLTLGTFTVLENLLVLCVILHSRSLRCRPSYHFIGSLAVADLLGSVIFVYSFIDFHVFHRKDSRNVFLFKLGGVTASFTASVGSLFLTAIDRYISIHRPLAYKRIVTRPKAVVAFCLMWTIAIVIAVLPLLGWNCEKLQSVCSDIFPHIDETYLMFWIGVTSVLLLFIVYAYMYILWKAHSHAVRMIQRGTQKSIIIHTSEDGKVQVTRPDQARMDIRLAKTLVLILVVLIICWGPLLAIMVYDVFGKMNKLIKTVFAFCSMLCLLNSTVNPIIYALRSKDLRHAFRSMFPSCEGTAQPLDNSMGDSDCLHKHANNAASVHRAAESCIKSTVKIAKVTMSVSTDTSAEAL
# CB1 (rCB1), sequence (P20272 whole entry): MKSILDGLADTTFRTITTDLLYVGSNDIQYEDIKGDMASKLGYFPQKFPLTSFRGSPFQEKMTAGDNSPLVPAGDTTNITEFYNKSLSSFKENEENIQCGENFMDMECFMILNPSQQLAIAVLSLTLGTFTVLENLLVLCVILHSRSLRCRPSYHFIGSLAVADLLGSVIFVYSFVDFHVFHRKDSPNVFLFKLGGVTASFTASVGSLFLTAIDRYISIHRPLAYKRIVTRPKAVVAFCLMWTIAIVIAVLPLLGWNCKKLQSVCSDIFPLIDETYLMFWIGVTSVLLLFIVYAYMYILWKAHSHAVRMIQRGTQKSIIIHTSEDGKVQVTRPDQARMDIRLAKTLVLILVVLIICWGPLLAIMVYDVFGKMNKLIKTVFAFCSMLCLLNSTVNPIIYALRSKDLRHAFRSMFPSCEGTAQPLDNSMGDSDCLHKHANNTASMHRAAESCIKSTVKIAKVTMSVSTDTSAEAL
compound,measurement,setting,value
Cc1cc(C(=O)NC(c2ccco2)c2ccco2)nn1-c1cccc(C(F)(F)F)c1 [‘1090],pKi [95% CI],CB1 (rCB1); rCB1,7.0 [6.7 – 7.4]
same,Ki,"CB1 (rCB1); read-out: Ki [95% CI], rCB1, [3H]-CP-55,940",90.8 nM
same,Gi1 hCB1 response,hCB1; Log [Compound] (M) -4.22186,110.038
same,Gi1 hCB1 response,hCB1; Log [Compound] (M) -4.63927,112.164
same,Gi1 hCB1 response,hCB1; Log [Compound] (M) -5.05788,98.6907
same,Gi1 hCB1 response,hCB1; Log [Compound] (M) -5.47381,79.5321
same,Gi1 hCB1 response,hCB1; Log [Compound] (M) -5.89285,73.4668
same,Gi1 hCB1 response,hCB1; Log [Compound] (M) -6.31878,61.1346
same,Gi1 hCB1 response,hCB1; Log [Compound] (M) -6.72585,69.6395
same,Gi1 hCB1 response,hCB1; Log [Compound] (M) -7.14267,48.8248
same,Gi1 hCB1 response,hCB1; Log [Compound] (M) -7.55284,35.6645
same,Gi1 hCB1 response,hCB1; Log [Compound] (M) -8,6.211
same,Gi1 hCB1 response,hCB1; Log [Compound] (M) -8.22186,13.1264
same,Gi1 hCB1 response,hCB1; Log [Compound] (M) -8.39794,-25.5487
same,Gi1 hCB1 response,hCB1; Log [Compound] (M) -8.68787,-2.72
same,Gi1 hCB1 response,hCB1; Log [Compound] (M) -9.15521,-19.4162
same,Gi1 hCB1 response,hCB1; Log [Compound] (M) -9.61989,5.584
same,Gi1 hCB1 response,hCB1; Log [Compound] (M) -10.0969,-17.9838
same,Gi1 hCB1 response,hCB1; Log [Compound] (M) -10.5529,0.2123
same,Gi1 hCB1 response,hCB1; Log [Compound] (M) -11.0177,-1.668
same,Gi1 hCB1 response,hCB1; Log [Compound] (M) -11.4949,-1.668
same,Gi1 hCB1 response,hCB1; Log [Compound] (M) -11.9208,-2.429
same,Gi1 hCB1 response,hCB1; Log [Compound] (M) -12.3979,-6.524
same,Gi1 hCB1 response,hCB1; Log [Compound] (M) -12.8861,-4.734
same,Gi1 hCB1 response,"hCB1; Log [Compound] (M) -13, individual replicate values",-8.293 and -12.478
same,Gi1 hCB1,hCB1; Log [Compound] (M) -4.22186,93.2514
same,GoB hCB1,hCB1; Log [Compound] (M) -4.22186,92.9275
same,Gi1 hCB1,hCB1; Log [Compound] (M) -4.63927,80.9336
same,GoB hCB1,hCB1; Log [Compound] (M) -4.63927,98.7901
same,Gi1 hCB1,hCB1; Log [Compound] (M) -5.05788,80.7948
same,GoB hCB1,hCB1; Log [Compound] (M) -5.05788,84.6911
same,Gi1 hCB1,hCB1; Log [Compound] (M) -5.47381,75.954
same,GoB hCB1,hCB1; Log [Compound] (M) -5.47381,85.1767
same,Gi1 hCB1,hCB1; Log [Compound] (M) -5.89285,77.9273
same,GoB hCB1,hCB1; Log [Compound] (M) -5.89285,88.8273
same,Gi1 hCB1,hCB1; Log [Compound] (M) -6.31878,77.4032
same,GoB hCB1,hCB1; Log [Compound] (M) -6.31878,81.2923
same,Gi1 hCB1,hCB1; Log [Compound] (M) -6.72585,72.1615
same,GoB hCB1,hCB1; Log [Compound] (M) -6.72585,72.8221
same,Gi1 hCB1,hCB1; Log [Compound] (M) -7.14267,54.5866
same,GoB hCB1,hCB1; Log [Compound] (M) -7.14267,60.3417
same,Gi1 hCB1,hCB1; Log [Compound] (M) -7.55284,37.9676
same,GoB hCB1,hCB1; Log [Compound] (M) -7.55284,40.506
same,Gi1 hCB1,hCB1; Log [Compound] (M) -8,20.7318
same,GoB hCB1,hCB1; Log [Compound] (M) -8,24.4829
same,Gi1 hCB1,hCB1; Log [Compound] (M) -8.22186,14.9814
same,GoB hCB1,hCB1; Log [Compound] (M) -8.22186,13.6209
same,Gi1 hCB1,hCB1; Log [Compound] (M) -8.39794,11.266
same,GoB hCB1,hCB1; Log [Compound] (M) -8.39794,8.064
same,Gi1 hCB1,hCB1; Log [Compound] (M) -8.68787,5.932
same,GoB hCB1,hCB1; Log [Compound] (M) -8.68787,3.406
same,Gi1 hCB1,hCB1; Log [Compound] (M) -9.15521,2.879
same,GoB hCB1,hCB1; Log [Compound] (M) -9.15521,0.583
same,Gi1 hCB1,hCB1; Log [Compound] (M) -9.61989,1.785
same,GoB hCB1,hCB1; Log [Compound] (M) -9.61989,-2.51
same,Gi1 hCB1,hCB1; Log [Compound] (M) -10.0969,3.897
same,GoB hCB1,hCB1; Log [Compound] (M) -10.0969,-0.2442
same,Gi1 hCB1,hCB1; Log [Compound] (M) -10.5529,2.155
same,GoB hCB1,hCB1; Log [Compound] (M) -10.5529,-0.55
same,Gi1 hCB1,hCB1; Log [Compound] (M) -11.0177,2.633
same,GoB hCB1,hCB1; Log [Compound] (M) -11.0177,0.2233
same,Gi1 hCB1,hCB1; Log [Compound] (M) -11.4949,3.6965
same,GoB hCB1,hCB1; Log [Compound] (M) -11.4949,0.565
same,Gi1 hCB1,hCB1; Log [Compound] (M) -11.9208,1.261
same,GoB hCB1,hCB1; Log [Compound] (M) -11.9208,2.507
same,Gi1 hCB1,hCB1; Log [Compound] (M) -12.3979,3.666
same,GoB hCB1,hCB1; Log [Compound] (M) -12.3979,1.59
same,Gi1 hCB1,hCB1; Log [Compound] (M) -12.8861,2.17
same,GoB hCB1,hCB1; Log [Compound] (M) -12.8861,4.557
same,Gi1 hCB1,hCB1; Log [Compound] (M) -13,1.415 and 2.093
same,GoB hCB1,hCB1; Log [Compound] (M) -13,4.719 and 2.903
same,pEC50 [95% CI],hCB1; hCB1 Gi1,7.5 [7.3 – 7.5]
same,pEC50 [95% CI],hCB1; hCB1 GoB,7.4 [7.3 – 7.5]
same,pEC50 [95% CI],hCB1; hCB1 Gz,6.9 [6.5 – 7.4]
same,EC50,hCB1; hCB1 Gi1,35.6 nM
same,EC50,hCB1; hCB1 GoB,37.3 nM
same,Emax,"hCB1; read-out: Emax [95% CI], hCB1 Gi1",81%
same,Emax,"hCB1; read-out: Emax [95% CI], hCB1 GoB",90%
same,Emax,"hCB1; read-out: Emax [95% CI], hCB1 Gz",115%
